Patent US20050086714A1, “Eucalyptus transformation method” (AGRIGENESIS BIOSCIENCES LIMITED, priority 2003, published 2005)

Key:
Type in all cases: cell-based, Eucalyptus grandis
[1] = test system: co-cultivated internode explants of Eucalyptus clone Eg8; test: Effect of kanamycin level on shoot regeneration from co-cultivated explants, Exp II
Description: (§1) Internode segment explants were prepared as described in Example 2 above. The explants were placed on a co-cultivation medium in a sideways orientation. The co-cultivation medium was usually EuCo19 (Table 2), although a similar medium could be employed. EuCo19 was based on the regeneration medium EuCo14, supplemented with 100 μM of acetosyringone. In addition, EuCo19 was solidified with gelrite while EuCo14 was solidified with agar. After 50 internode explants were placed on one medium plate, 1-2 μl of Agrobacterium cells were applied to each internode. The plate was then sealed and incubated at 22° C. under low intensity light (300 lux) for three days.
(§2) After 3 days of co-cultivation, the explants were transferred to regeneration/selection medium containing 20-50 mg/l kanamycin and 250 mg/l timentin. In a number of experiments, 10-30 explants from each treatment were taken from the selection medium at day 4 on the medium and tested for transient transgene expression using a GUS staining procedure described in Example 3.6 below.
(§3) In a follow-up experiment, 425 internode explants of the E. grandis clone C101 were co-cultivated with LBA4404 containing the binary vector pART69 and then transferred to selection media containing five different concentrations of kanamycin. The regeneration efficiencies were 100%, 17%, 8%, 3% and 1% from kanamycin concentrations of 0, 20, 30, 40 and 50 mg/l, respectively.

[2] = test system: wild type internode explants of E. grandis clone 8 or C101; test: Effect of kanamycin level on shoot regeneration from wild type explants
Description: A range of kanamycin concentrations (0, 5, 10, 15, 20, 30, 40 and 50 mg/l) were then tested in four experiments to determine the minimum level of kanamycin for inhibiting regeneration from the wild type internode explants (Table 5).
Fifty internode explants of the E. grandis clone 8 or C101 were cultured on each of the eight media consisting of EuCo14 supplemented with kanamycin at eight different concentrations, namely 0, 5, 10, 15, 20, 30, 40 and 50 mg/l. […] An excessive level of kanamycin kills non-transformed cells in the explant early in the selection stages. This will reduce the regeneration from transformed cells which would be surrounded by these dead non-transformed cells.

[3] = test system: internode explants of Eucalyptus clone C101 co-cultivated with LBA4404 containing pART69; test: Effect of kanamycin level on shoot regeneration from co-cultivated explants, Exp I
Description: as §1, §2, §3

Q: For `NC[C@H]1O[C@H](O[C@H]2[C@H](O)[C@@H](O[C@H]3O[C@H](CO)[C@@H](O)[C@H](N)[C@H]3O)[C@H](N)C[C@@H]2N)[C@H](O)[C@@H](O)[C@@H]1O` [Kanamycin, kanamycin], which Regeneration Rate ([1]; kanamycin 20 mg/l) is on record?
A: Its Regeneration Rate is 29%.

Q: What about the Regeneration Rate ([1]; kanamycin 30 mg/l) of the same compound?
A: The Regeneration Rate was 12%.

Q: And the Regeneration Rate ([1]; kanamycin 40 mg/l)?
A: Its Regeneration Rate is 6%.

Q: And the Regeneration Rate ([1]; kanamycin 50 mg/l)?
A: The Regeneration Rate was 4%.

Q: And the “Regeneration Rate” value ([2]; kanamycin 5 mg/L in EuCo14, Exp 3)?
A: The value was 2%.

Q: What about the “Regeneration Rate” value ([2]; kanamycin 5 mg/L in EuCo14, Exp 4) of the same compound?
A: Its value is 10%.

Q: And the “Regeneration Rate” value ([2]; kanamycin 10 mg/L in EuCo14, Exp 3)?
A: Its value is 0%.

Q: What about the “Regeneration Rate” value ([2]; kanamycin 10 mg/L in EuCo14, Exp 4) of the same compound?
A: The value was 0%.

Q: What about the “Regeneration Rate” value ([2]; kanamycin 15 mg/L in EuCo14, Exp 3) of the same compound?
A: Its value is 0%.

Q: What about the “Regeneration Rate” value ([2]; kanamycin 15 mg/L in EuCo14, Exp 4) of the same compound?
A: Its value is 0%.

Q: What about the “Regeneration Rate” value ([2]; kanamycin 20 mg/L in EuCo14, Exp 1) of the same compound?
A: Its value is 0%.

Q: What about the “Regeneration Rate” value ([2]; kanamycin 20 mg/L in EuCo14, Exp 2) of the same compound?
A: The value was 4%.

Q: What about the “Regeneration Rate” value ([2]; kanamycin 30 mg/L in EuCo14, Exp 1) of the same compound?
A: Its value is 0%.

Q: What about the “Regeneration Rate” value ([2]; kanamycin 30 mg/L in EuCo14, Exp 2) of the same compound?
A: The value was 0%.

Q: What about the “Regeneration Rate” value ([2]; kanamycin 40 mg/L in EuCo14, Exp 1) of the same compound?
A: The value was 0%.

Q: What about the “Regeneration Rate” value ([2]; kanamycin 40 mg/L in EuCo14, Exp 2) of the same compound?
A: Its value is 0%.

Q: What about the “Regeneration Rate” value ([2]; kanamycin 50 mg/L in EuCo14, Exp 1) of the same compound?
A: Its value is 0%.

Q: And the “Regeneration Rate” value ([2]; kanamycin 50 mg/L in EuCo14, Exp 2)?
A: Its value is 0%.

Q: And the Regeneration Rate ([3]; kanamycin 20 mg/l)?
A: The Regeneration Rate was 17%.

Q: What about the Regeneration Rate ([3]; kanamycin 20 mg/l, listed as kanamycin) of the same compound?
A: The Regeneration Rate was 17%.

Q: And the Regeneration Rate ([3]; kanamycin 30 mg/l)?
A: Its Regeneration Rate is 8%.

Q: And the Regeneration Rate ([3]; kanamycin 30 mg/l, listed as kanamycin)?
A: The Regeneration Rate was 8%.

Q: And the Regeneration Rate ([3]; kanamycin 40 mg/l)?
A: Its Regeneration Rate is 3%.

Q: What about the Regeneration Rate ([3]; kanamycin 40 mg/l, listed as kanamycin) of the same compound?
A: The Regeneration Rate was 3%.

Q: What about the Regeneration Rate ([3]; kanamycin 50 mg/l) of the same compound?
A: The Regeneration Rate was 1%.

Q: What about the Regeneration Rate ([3]; kanamycin 50 mg/l, listed as kanamycin) of the same compound?
A: Its Regeneration Rate is 1%.
